Data published in paper PMC11369081, “Molecular mechanism of prolactin-releasing peptide recognition and signaling via its G protein-coupled receptor” (Cell Discovery, 2024).
Peptide text beside a SMILES is read from it.

How the values were obtained:
Assay type in all cases: cell-based
PrRPR W127A = target: T1, PrRPR W127A (Homo sapiens, UniProt P49683, W127A); assay: BRET2 Gq dissociation, W127A; conditions: W127A (23.50), Gq-coupling, AD293 cells; mean ± S.E.M., n = 3; P <0.0001 vs WT; read-out: BRET2 pEC50 (converted)
T1 construct: expressed in transfected cells; host or cells: AD293 cells
Description: (§1) AD293 cells (Agilent) were propagated in Dulbecco’s Modified Eagle Medium (DMEM, Thermo Fisher Scientific), enriched with 10% fetal bovine serum (FBS, Thermo Fisher Scientific), and maintained at 37 °C in a 5% CO2 environment. Cells were then seeded in 6-well dishes at a density of 130,000–150,000 cells per mL and allowed to incubate overnight. On the next day, cells were transfected with plasmids at a 1:1:1:1 ratio for receptor:Gα-RLuc8:Gβ:Gγ-GFP2[52]. PEI MAX 40 K (BIOHUB) was utilized to form complex with the plasmids at a ratio of 3 µL PEI per µg of plasmids, in OptiMEM (Gibco-Thermo Fisher Scientific) at a concentration of 10 ng plasmids per µL OptiMEM. After 24 h of incubation, the culture was harvested by centrifugation with PBS. The cell suspension was then allocated into a white 384-well plate at a volume of 30 µL per well, followed by the addition of 10 µL of freshly prepared 50 µM coelenterazine 400a (Yeasen). […] Plates were subsequently read in a BioTek Synergy H1 microplate reader (BioTek) equipped with 395 nm (RLuc8-coelenterazine 400a) and 510 nm (GFP2) emission filters. BRET2 ratios were calculated as the ratio of the GFP2 emission to RLuc8 emission. […]
(§2) Supplementary Fig. S4 | Effects of mutations in the ligand-binding pocket and G protein intereface of Gq coupled PrRPR by BRET2 assay. […] BRET2 assay signals were measured after stimulation with PrRP20. […]

PrRPR Q141A [1] = target: T2, PrRPR Q141A (Homo sapiens, UniProt P49683, Q141A); assay: BRET2 Gq dissociation, Q141A; conditions: Q141A (3.32), Gq-coupling, AD293 cells; mean ± S.E.M., n = 3; P 0.0059 vs WT; read-out: BRET2 pEC50 (converted)
T2 construct: expressed in transfected cells; host or cells: AD293 cells
Description: as §1, §2

PrRPR L203A = target: T3, PrRPR L203A (Homo sapiens, UniProt P49683, L203A); assay: BRET2 Gq dissociation, L203A; conditions: L203A (ECL2), Gq-coupling, AD293 cells; mean ± S.E.M., n = 3; P 0.0021 vs WT; read-out: BRET2 pEC50 (converted)
T3 construct: expressed in transfected cells; host or cells: AD293 cells
Description: as §1, §2

PrRPR E212A [2] = target: T4, PrRPR E212A (Homo sapiens, UniProt P49683, E212A); assay: BRET2 Gq dissociation, E212A; conditions: E212A (45.51), Gq-coupling, AD293 cells; mean ± S.E.M., n = 3; P <0.0001 vs WT; read-out: BRET2 pEC50 (converted)
T4 construct: expressed in transfected cells; host or cells: AD293 cells
Description: as §1, §2

PrRPR E213A [3] = target: T5, PrRPR E213A (Homo sapiens, UniProt P49683, E213A); assay: BRET2 Gq dissociation, E213A; conditions: E213A (45.52), Gq-coupling, AD293 cells; mean ± S.E.M., n = 3; P <0.0001 vs WT; read-out: BRET2 pEC50 (converted)
T5 construct: expressed in transfected cells; host or cells: AD293 cells
Description: as §1, §2

PrRPR N298A = target: T6, PrRPR N298A (Homo sapiens, UniProt P49683, N298A); assay: BRET2 Gq dissociation, N298A; conditions: N298A (6.55), Gq-coupling, AD293 cells; mean ± S.E.M., n = 3; P 0.0042 vs WT; read-out: BRET2 pEC50 (converted)
T6 construct: Flag; expressed in transfected cells; host or cells: AD293 cells
Description: as §1, §2

PrRPR Q141A [4] = target: T2, PrRPR Q141A; assay: BRET2 Gi dissociation, Q141A; conditions: Q141A (3.32), Gi-coupling, AD293 cells; mean ± S.E.M., n = 3; P 0.0002 vs WT; read-out: BRET2 pEC50 (converted)
Description: (§3) AD293 cells (Agilent) were propagated in Dulbecco’s Modified Eagle Medium (DMEM, Thermo Fisher Scientific), enriched with 10% fetal bovine serum (FBS, Thermo Fisher Scientific), and maintained at 37 °C in a 5% CO2 environment. Cells were then seeded in 6-well dishes at a density of 130,000–150,000 cells per mL and allowed to incubate overnight. On the next day, cells were transfected with plasmids at a 1:1:1:1 ratio for receptor:Gα-RLuc8:Gβ:Gγ-GFP2[52]. PEI MAX 40 K (BIOHUB) was utilized to form complex with the plasmids at a ratio of 3 µL PEI per µg of plasmids, in OptiMEM (Gibco-Thermo Fisher Scientific) at a concentration of 10 ng plasmids per µL OptiMEM. After 24 h of incubation, the culture was harvested by centrifugation with PBS. The cell suspension was then allocated into a white 384-well plate at a volume of 30 µL per well, followed by the addition of 10 µL of freshly prepared 50 µM coelenterazine 400a (Yeasen). Following a 15-min equilibration period, cells were treated with 10 µL of ligand for an additional 5 min. Plates were subsequently read in a BioTek Synergy H1 microplate reader (BioTek) equipped with 395 nm (RLuc8-coelenterazine 400a) and 510 nm (GFP2) emission filters. BRET2 ratios were calculated as the ratio of the GFP2 emission to RLuc8 emission. Data were normalized to the baseline response of the ligand. […]

PrRPR E212A [5] = target: T4, PrRPR E212A; assay: BRET2 Gi dissociation, E212A; conditions: E212A (45.51), Gi-coupling, AD293 cells; mean ± S.E.M., n = 3; P <0.0001 vs WT; read-out: BRET2 pEC50 (converted)
Description: as §3

PrRPR E213A [6] = target: T5, PrRPR E213A; assay: BRET2 Gi dissociation, E213A; conditions: E213A (45.52), Gi-coupling, AD293 cells; mean ± S.E.M., n = 3; P <0.0001 vs WT; read-out: BRET2 pEC50 (converted)
Description: as §3

PrRPR Y225A = target: T7, PrRPR Y225A (Homo sapiens, UniProt P49683, Y225A); assay: BRET2 Gi dissociation, Y225A; conditions: Y225A (5.38), Gi-coupling, AD293 cells; mean ± S.E.M., n = 3; P <0.0001 vs WT; read-out: BRET2 pEC50 (converted)
T7 construct: Flag; expressed in transfected cells; host or cells: AD293 cells
Description: as §3

PrRPR H295A = target: T8, PrRPR H295A (Homo sapiens, UniProt P49683, H295A); assay: BRET2 Gi dissociation, H295A; conditions: H295A (6.52), Gi-coupling, AD293 cells; mean ± S.E.M., n = 3; P 0.8032 vs WT; read-out: BRET2 pEC50 (converted)
T8 construct: Flag; expressed in transfected cells; host or cells: AD293 cells
Description: as §3

PrRPR Q317A = target: T9, PrRPR Q317A (Homo sapiens, UniProt P49683, Q317A); assay: BRET2 Gi dissociation, Q317A; conditions: Q317A (7.35), Gi-coupling, AD293 cells; mean ± S.E.M., n = 3; P <0.0001 vs WT; read-out: BRET2 pEC50 (converted)
T9 construct: Flag; expressed in transfected cells; host or cells: AD293 cells
Description: as §3

T4 sequence (P49683 whole entry E212A): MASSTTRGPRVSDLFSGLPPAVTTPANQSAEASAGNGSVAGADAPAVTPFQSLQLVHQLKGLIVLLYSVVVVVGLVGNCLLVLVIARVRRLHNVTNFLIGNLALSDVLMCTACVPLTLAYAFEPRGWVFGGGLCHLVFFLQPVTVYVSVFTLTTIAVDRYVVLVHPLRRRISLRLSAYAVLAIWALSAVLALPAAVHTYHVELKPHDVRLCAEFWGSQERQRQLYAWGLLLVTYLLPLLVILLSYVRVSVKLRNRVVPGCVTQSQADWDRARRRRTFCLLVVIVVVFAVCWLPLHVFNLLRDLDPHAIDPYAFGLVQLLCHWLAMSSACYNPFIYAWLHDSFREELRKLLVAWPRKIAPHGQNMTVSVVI
T2 sequence (P49683 whole entry Q141A): as the sequence (P49683 whole entry E212A) above, with Q141A, A212E counted along it
T5 sequence (P49683 whole entry E213A): as the sequence (P49683 whole entry E212A) above, with A212E, E213A counted along it
T8 sequence (P49683 whole entry H295A): as the sequence (P49683 whole entry E212A) above, with A212E, H295A counted along it
T1 sequence (P49683 whole entry W127A): as the sequence (P49683 whole entry E212A) above, with W127A, A212E counted along it
T3 sequence (P49683 whole entry L203A): as the sequence (P49683 whole entry E212A) above, with L203A, A212E counted along it
T9 sequence (P49683 whole entry Q317A): as the sequence (P49683 whole entry E212A) above, with A212E, Q317A counted along it
T7 sequence (P49683 whole entry Y225A): as the sequence (P49683 whole entry E212A) above, with A212E, Y225A counted along it
T6 sequence (P49683 whole entry N298A): as the sequence (P49683 whole entry E212A) above, with A212E, N298A counted along it

EC50 (PrRPR W127A): 0.24 µM | EC50 (PrRPR Q141A [1]): 0.00302 µM | EC50 (PrRPR L203A): 0.00309 µM | EC50 (PrRPR E212A [2]): 0.0288 µM | EC50 (PrRPR E213A [3]): 0.282 µM | EC50 (PrRPR N298A): 0.00295 µM | EC50 (PrRPR Q141A [4]): 0.00759 µM | EC50 (PrRPR E212A [5]): 0.398 µM | EC50 (PrRPR E213A [6]): 1.38 µM | EC50 (PrRPR Y225A): 0.55 µM | EC50 (PrRPR H295A): 0.00302 µM | EC50 (PrRPR Q317A): 4.17 µM
SMILES: CC[C@H](C)[C@H](NC(=O)CNC(=O)[C@H](CCCNC(=N)N)NC(=O)[C@H](CO)NC(=O)[C@H](C)NC(=O)[C@H](Cc1ccc(O)cc1)NC(=O)[C@H](Cc1c[nH]c2ccccc12)NC(=O)[C@H](C)NC(=O)[C@@H]1CCCN1C(=O)[C@H](CC(N)=O)NC(=O)[C@@H](NC(=O)[C@H](CC(=O)O)NC(=O)[C@@H]1CCCN1C(=O)[C@@H](N)[C@@H](C)O)[C@@H](C)CC)C(=O)N[C@@H](CCCNC(=N)N)C(=O)N1CCC[C@H]1C(=O)N[C@H](C(=O)NCC(=O)N[C@@H](CCCNC(=N)N)C(=O)N[C@@H](Cc1ccccc1)C(N)=O)C(C)C [PrRP20] (H-TPDINPAWYASRGIRPVGRF-NH2)
